Assay results reported in patent US12116343B2, “Inhibitors of APOL1 and methods of using same” (Vertex Pharmaceuticals Incorporated, priority 2020, dated 2024).
pIC50: −log10 of the molar value.

Each compound was assayed against T1, G1 APOL1 (Homo sapiens, UniProt O14791, I384M/S342G) (assay: Acute APOL1 Thallium Assay with inducible stable clones of HEK 293 cells). Details: HEK 293 T-Rex cells expressing G1 APOL1; read-out: Thallium Assay (IC50).
T1 construct: expressed in transfected cells
T1 sequence (O14791 28-398 S342G/I384M): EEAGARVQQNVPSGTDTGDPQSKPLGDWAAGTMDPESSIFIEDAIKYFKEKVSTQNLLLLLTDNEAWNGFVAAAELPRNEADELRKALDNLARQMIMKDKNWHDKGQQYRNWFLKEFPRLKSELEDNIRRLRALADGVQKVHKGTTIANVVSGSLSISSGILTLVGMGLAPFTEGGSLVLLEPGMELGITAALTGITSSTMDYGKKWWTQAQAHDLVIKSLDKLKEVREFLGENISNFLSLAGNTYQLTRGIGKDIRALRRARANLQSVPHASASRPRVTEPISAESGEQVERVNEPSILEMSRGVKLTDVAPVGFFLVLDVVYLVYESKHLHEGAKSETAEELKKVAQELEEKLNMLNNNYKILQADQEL
Format: cell-based
Procedure, shortened: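 Readout: Tl+-triggered fluorescence, FLIPR, reflecting potassium flux through APOL1 pores after cells take up an AM-ester thallium indicator. Cells: HEK T-Rex stable clone G1 DC3.25, APOL1 G1 induced by tetracycline, seeded 26000 per well.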

| Compound | pIC50 |
| --- | --- |
| COCCNC(=O)[C@H]1C[C@H](c2c(-c3ccc(F)cc3)[nH]c3c(F)cc(F)cc32)C1 [Compound 12] | < 6.00 |
| O=C(N[C@H]1CNC[C@@H]1O)[C@H]1C[C@H](c2c(-c3ccc(F)cc3)[nH]c3c(F)cc(F)cc32)C1 [Compound 212] | < 6.00 |
| CN(C(=O)[C@H]1C[C@H](c2c(-c3ccc(F)cc3)[nH]c3c(F)cc(F)cc32)C1)C1COCC1O (stereo partly shown) [Compound 205] | < 6.00 |
| Cc1ccn(CCNC(=O)[C@H]2C[C@H](c3c(-c4ccc(F)cc4)[nH]c4c(F)cc(F)cc43)C2)n1 [Compound 35] | < 6.00 |
| O=C([C@H]1C[C@H](c2c(-c3ccc(F)cc3)[nH]c3c(F)cc(F)cc32)C1)N1C[C@@H](O)[C@H](O)C1 [Compound 227] | < 6.00 |
| O=C(N[C@@H]1CCC[C@H]1O)[C@H]1C[C@H](c2c(-c3ccc(F)cc3)[nH]c3c(F)cc(F)cc32)C1 [Compound 182] | < 6.00 |
| Cn1cc(CNC(=O)[C@H]2C[C@H](c3c(-c4ccc(F)cc4)[nH]c4c(F)cc(F)cc43)C2)cn1 [Compound 38] | < 6.00 |
| O=C(N[C@H]1C[C@H](O)C1)[C@H]1C[C@H](c2c(-c3ccc(F)cc3)[nH]c3c(F)cc(F)cc32)C1 [Compound 20] | < 6.00 |
| O=C(NC[C@H]1CC[C@@H](CO)O1)[C@H]1C[C@H](c2c(-c3ccc(F)cc3)[nH]c3c(F)cc(F)cc32)C1 [Compound 189] | < 6.00 |
| Cc1cc(NC(=O)[C@H]2C[C@H](c3c(-c4ccc(F)cc4)[nH]c4c(F)cc(F)cc43)C2)no1 [Compound 17] | 6.00 to 6.60 |
| O=C1CCC(NC(=O)[C@H]2C[C@H](c3c(-c4ccc(F)cc4)[nH]c4c(F)cc(F)cc43)C2)C(=O)N1 (stereo partly shown) [Compound 26] | 6.00 to 6.60 |

The remaining lines, values ahead:

| pIC50 | Compound |
| --- | --- |
| 6.00 to 6.60 | O=C([C@H]1C[C@H](c2c(-c3ccc(F)cc3)[nH]c3c(F)cc(F)cc32)C1)N1CCOC[C@@H]1CO [Compound 219] |
| 6.00 to 6.60 | O=C(NC[C@H](O)C(F)(F)F)[C@H]1C[C@H](c2c(-c3ccc(F)cc3)[nH]c3c(F)cc(F)cc32)C1 [Compound 176] |
| > 6.60 | NC(=O)[C@@H](CO)NC(=O)[C@H]1C[C@H](c2c(-c3ccc(F)cc3)[nH]c3c(F)cc(F)cc32)C1 [Compound 221] |
| 6.00 to 6.60 | O=C([C@H]1C[C@H](c2c(-c3ccc(F)cc3)[nH]c3c(F)cc(F)cc32)C1)N1CC[C@H]1CO [Compound 206] |
| 6.00 to 6.60 | C[C@@H](NC(=O)[C@H]1C[C@H](c2c(-c3ccc(F)cc3)[nH]c3c(F)cc(F)cc32)C1)C(N)=O [Compound 28] |
| > 6.60 | CC(C)(CO)NC(=O)[C@H]1C[C@H](c2c(-c3ccc(F)cc3)[nH]c3c(F)cc(F)cc32)C1 [Compound 31] |
| > 6.60 | CC(CO)NC(=O)[C@H]1C[C@H](c2c(-c3ccc(F)cc3)[nH]c3c(F)cc(F)cc32)C1 (mixture of isomers) [Compound 13] |
| 6.00 to 6.60 | O=C(NC1(CO)CC(F)(F)C1)[C@H]1C[C@H](c2c(-c3ccc(F)cc3)[nH]c3c(F)cc(F)cc32)C1 [Compound 202] |
